US20230263822A1, “MODULATION OF FACTOR 11 EXPRESSION” (Ionis Pharmaceuticals, Inc., priority 2008, published 2023)
Strand notation (5' to 3'): a small letter for the sugar, then the base; units joined by * are phosphorothioate-linked, units joined directly phosphodiester-linked; [ ] holds rarer units or linkages, { } end groups; capitals alone tell only the bases. e = 2'-O-(2-methoxyethyl) (MOE); [5mC] = 5-methylcytosine; d = 2'-deoxy (DNA)

Experiments:
human Factor 11 mRNA = test: Antisense inhibition of human Factor 11 in HepG2 cells, lipofectin, 75 nM (Example 1); format: cell-based; settings: 75 nM antisense oligonucleotide, ~24 h, relative to untreated control cells, gapmers targeted to SEQ ID NO: 1
How it was run: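 HepG2 cells transfected via lipofectin with 75 nM antisense oligonucleotide (5-10-5 MOE gapmers, 20-mers, phosphorothioate, 5-methylcytidines), treated ~24 h. Factor 11 mRNA quantified by real-time PCR, normalised to RIBOGREEN total RNA; percent inhibition versus untreated cells.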

[1] = parameters: species or system CD1 mice; settings: mouse, in vivo, sc, 50 mg/kg
Description: The concentration of the full-length oligonucleotide was measured. The method used is a modification of previously published methods (Leeds et al., 1996; Geary et al., 1999) which consist of a phenol-chloroform (liquid-liquid) extraction followed by a solid phase extraction. An internal standard (ISIS 355868, a 27-mer 2′-O-methoxyethyl modified phosphorothioate oligonucleotide, […], designated herein as SEQ ID NO: 270) was added prior to extraction. […] The results are presented in Table 85 expressed as μg/g liver tissue.

[2] = Tolerability in CD1 mice: hematology assays (Example 41); settings: 50 mg/kg s.c. twice per week for 6 weeks, blood
[3] = Tolerability in CD1 mice: kidney function, BUN (Example 41); settings: 50 mg/kg s.c. twice per week for 6 weeks, plasma
[4] = Tolerability in CD1 mice: body weight and organ weight (Example 41); settings: 50 mg/kg s.c. twice per week for 6 weeks
platelet aggregation = test: Platelet aggregation assay, ADP and/or collagen (Example 45); format: in vivo, cynomolgus monkeys; settings: escalating dose regimen
Description: (§1) Groups, each consisting of two male and three female monkeys, were injected subcutaneously with ISIS 416838, ISIS 416850, ISIS 416858, ISIS 416864, or ISIS 417002 in escalating doses. Antisense oligonucleotide was administered to the monkeys at 5 mg/kg three times per a week for week 1; 5 mg/kg twice per week for weeks 2 and 3; 10 mg/kg three times per week for week 4; 10 mg/kg twice per week for weeks 5 and 6; 25 mg/kg three times per week for week 7; and 25 mg/kg twice per week for weeks 8, 9, 10, 11, and 12. One control group, consisting of two male and three female monkeys, was injected subcutaneously with PBS according to the same dosing regimen. An additional experimental group, consisting of two male and three female monkeys, was injected subcutaneously with ISIS 416850 in a chronic, lower dose regimen. Antisense oligonucleotide was administered to the monkeys at 5 mg/kg three times per week for week 1; 5 mg/kg twice per week for week 2 and 3; 10 mg/kg three times per week for week 4; and 10 mg/kg twice per week for weeks 5 to 12. Body weights were measured weekly. Blood samples were collected 14 days and 5 days before the start of treatment and subsequently once per week for Factor 11 protein activity analysis in plasma, fibrinogen measurement, PT and aPTT measurements, bleeding times, and measurement of various hematologic factors. On day 85, the monkeys were euthanized by exsanguination while under deep anesthesia, and organs harvested for further analysis.
Platelet aggregation was initiated by adding 1 mmol/L ADP and/or 3 μg collagen (depending on the collection day, as outlined in Table 121) to plasma samples, and was allowed to proceed for 10 minutes. Aggregation was characterized by recording the change in the electrical resistance or impedance and the change in the initial slope of aggregation after platelet shape change. The aggregation test was performed twice per sample on each collection day and the average value was taken. The ISIS oligonucleotide, ISIS 416850, given with the chronic dose regimen is distinguished from the other oligonucleotides with an asterisk (*).

[5] = Kidney function, urine protein to creatinine ratio in cynomolgus monkeys (Example 45); format: in vivo
Description: as §1
To evaluate the impact of ISIS oligonucleotides on kidney function, urine samples were collected.

[6] = Tolerability in Sprague-Dawley rats: kidney function (Example 44); format: in vivo; settings: 50 mg/kg s.c. twice per week for 6 weeks; for BUN / Creatinine: plasma
[7] = Tolerability in CD1 mice: body weight and organ weight (Example 43); format: in vivo; settings: 50 mg/kg s.c. twice per week for 6 weeks, end of study

Substance: 413482 (antisense GGACGGCATTGGTGCACAGT; 5-10-5 MOE gapmer, further chemistry not given here) [compound 413482]
- % inhibition (human Factor 11 mRNA): 85%
- Half-Life in the liver [1]: 19.5 days

Substance: ISIS 445531: 5-8-5 or 6-8-6 MOE microwalk gapmer (Table 44) (antisense eG*eG*e[5mC]*eA*eT*dT*dG*dG*dT*dG*d[5mC]*dA*d[5mC]*eA*eG*eT*eT*eT)
- HCT [2]: 48%
- Lymphocyte [2]: 6125
- Neutrophil [2]: 2341
- Platelets [2]: 996
- RBC [2]: 9.4
- WBC [2]: 9
- hemoglobin [2]: 14.5 g/dL
- BUN [3]: 27 mg/dL
- body weight ([4]; increase in grams over the PBS control weight taken before the start of treatment): 10 g
- Kidney weight ([4]; percentage of the body weight): 1.5%
- Liver weight ([4]; percentage of the body weight): 6%
- Spleen weight ([4]; percentage of the body weight): 0.5%

Substance: ISIS 417002: MOE gapmer, nucleobases 1275 to 1318 of SEQ ID NO: 1 (Table 8) (antisense GGTGCACAGTTTCTGGCAGG; MOE gapmer, wing and gap sizes not given here)
- platelet aggregation (platelet aggregation; day 15 (with ADP)): 16 Ohms
- platelet aggregation (platelet aggregation; day 36 (with ADP)): 13.9 Ohms
- platelet aggregation (platelet aggregation; day 43 (with collagen)): 19 Ohms
- platelet aggregation (platelet aggregation; day 57 (with ADP)): 18 Ohms
- platelet aggregation (platelet aggregation; day 64 (with collagen)): 18 Ohms
- platelet aggregation (platelet aggregation; day 78 (with ADP)): 18 Ohms
- platelet aggregation (platelet aggregation; day 85 (with ADP)): 22 Ohms
- platelet aggregation (platelet aggregation; day 85 (with collagen)): 24 Ohms
- platelet aggregation (platelet aggregation; day −5 (with collagen)): 21 Ohms
- urine protein to creatinine ratio ([5]; Day 80): 0.18
- urine protein to creatinine ratio ([5]; Day 84): 0.24

Substance: ISIS 449710: 3-8-3, 4-8-4, 2-10-2, 3-10-3 or 4-10-4 MOE microwalk gapmer (Table 46) (antisense e[5mC]*eA*e[5mC]*dA*dG*dT*dT*dT*d[5mC]*dT*dG*dG*d[5mC]*eA*eG*eG)
- BUN [6]: 29 mg/dL
- Creatinine [6]: 0.3 mg/dL
- Urine protein/creatinine ratio [6]: 5.9
- Change in Kidney weight [7]: −7%
- Change in Liver weight [7]: +6%
- Change in Spleen weight [7]: +43%

Substance: ISIS 449709: 3-8-3, 4-8-4, 2-10-2, 3-10-3 or 4-10-4 MOE microwalk gapmer (Table 46) (antisense eG*e[5mC]*eA*e[5mC]*dA*dG*dT*dT*dT*d[5mC]*dT*dG*dG*d[5mC]*eA*eG*eG*e[5mC])
- BUN [6]: 24 mg/dL
- Creatinine [6]: 0.4 mg/dL
- Urine protein/creatinine ratio [6]: 3.4
- Change in Kidney weight [7]: −14%
- Change in Liver weight [7]: +15%
- Change in Spleen weight [7]: +62%

Substance: 412223 (antisense ACAGTTTCTGGCAGGCCTCG; 5-10-5 MOE gapmer, further chemistry not given here) [compound 412223]
- % inhibition (human Factor 11 mRNA): 84%
- Half-Life in the liver [1]: 21.9 days

Substance: 416856 (antisense GGCATTGGTGCACAGTTTCT; 5-10-5 gapmer, further chemistry not given here) [compound 416856]
- Half-Life in the liver [1]: 19.2 days

Substance: ISIS 449711: 3-8-3, 4-8-4, 2-10-2, 3-10-3 or 4-10-4 MOE microwalk gapmer (Table 46) (antisense eA*e[5mC]*dA*dG*dT*dT*dT*d[5mC]*dT*dG*dG*d[5mC]*eA*eG)
- BUN [6]: 28 mg/dL
- Creatinine [6]: 0.4 mg/dL
- Urine protein/creatinine ratio [6]: 7.3
- Change in Kidney weight [7]: −12%
- Change in Liver weight [7]: +18%
- Change in Spleen weight [7]: +63%

Substance: ISIS 416838: MOE gapmer, nucleobases 1018 to 1042 of SEQ ID NO: 1 (Table 6) (antisense GCAACCGGGATGATGAGTGC; MOE gapmer, wing and gap sizes not given here)
- platelet aggregation (platelet aggregation; day 15 (with ADP)): 15 Ohms
- platelet aggregation (platelet aggregation; day 36 (with ADP)): 8 Ohms
- platelet aggregation (platelet aggregation; day 43 (with collagen)): 16 Ohms
- platelet aggregation (platelet aggregation; day 57 (with ADP)): 7 Ohms
- platelet aggregation (platelet aggregation; day 64 (with collagen)): 13 Ohms
- platelet aggregation (platelet aggregation; day 78 (with ADP)): 11 Ohms
- platelet aggregation (platelet aggregation; day 85 (with ADP)): 15 Ohms
- platelet aggregation (platelet aggregation; day 85 (with collagen)): 24 Ohms
- platelet aggregation (platelet aggregation; day −5 (with collagen)): 15 Ohms
- urine protein to creatinine ratio ([5]; Day 80): 0.13
- urine protein to creatinine ratio ([5]; Day 84): 0.13

Substance: 412224 (antisense GCATTGGTGCACAGTTTCTG; 5-10-5 MOE gapmer, further chemistry not given here) [compound 412224]
- % inhibition (human Factor 11 mRNA): 87%
- Half-Life in the liver [1]: 16.6 days

Substance: 412206 (antisense e[5mC]*e[5mC]*eG*eT*eG*d[5mC]*dA*dT*d[5mC]*dT*dT*dT*d[5mC]*dT*dT*eG*eG*e[5mC]*eA*eT) [compound 412206]
- % inhibition (human Factor 11 mRNA): 87%

Substance: ISIS 449708: 3-8-3, 4-8-4, 2-10-2, 3-10-3 or 4-10-4 MOE microwalk gapmer (Table 46) (antisense eA*e[5mC]*eA*dG*dT*dT*dT*d[5mC]*dT*dG*dG*e[5mC]*eA*eG)
- BUN [6]: 24 mg/dL
- Creatinine [6]: 0.4 mg/dL
- Urine protein/creatinine ratio [6]: 5.7
- Change in Kidney weight [7]: 0%
- Change in Liver weight [7]: +17%
- Change in Spleen weight [7]: +66%

Substance: ISIS 449707: 3-8-3, 4-8-4, 2-10-2, 3-10-3 or 4-10-4 MOE microwalk gapmer (Table 46) (antisense e[5mC]*eA*e[5mC]*eA*dG*dT*dT*dT*d[5mC]*dT*dG*dG*e[5mC]*eA*eG*eG)
- BUN [6]: 24 mg/dL
- Creatinine [6]: 0.4 mg/dL
- Urine protein/creatinine ratio [6]: 3.2
- Change in Kidney weight [7]: −5%
- Change in Liver weight [7]: +11%
- Change in Spleen weight [7]: +63%

Substance: 412225 (antisense GCAGCGGACGGCATTGGTGC; 5-10-5 MOE gapmer, further chemistry not given here) [compound 412225]
- % inhibition (human Factor 11 mRNA): 86%
- Half-Life in the liver [1]: 20.7 days

Substance: ISIS 416858: MOE gapmer, nucleobases 1275 to 1318 of SEQ ID NO: 1 (Table 8) (antisense ACGGCATTGGTGCACAGTTT; MOE gapmer, wing and gap sizes not given here)
- platelet aggregation (platelet aggregation; day 15 (with ADP)): 19 Ohms
- platelet aggregation (platelet aggregation; day 36 (with ADP)): 17 Ohms
- platelet aggregation (platelet aggregation; day 43 (with collagen)): 16 Ohms
- platelet aggregation (platelet aggregation; day 57 (with ADP)): 11 Ohms
- platelet aggregation (platelet aggregation; day 64 (with collagen)): 14 Ohms
- platelet aggregation (platelet aggregation; day 78 (with ADP)): 8 Ohms
- platelet aggregation (platelet aggregation; day 85 (with ADP)): 18 Ohms
- platelet aggregation (platelet aggregation; day 85 (with collagen)): 23 Ohms
- platelet aggregation (platelet aggregation; day −5 (with collagen)): 22 Ohms
- urine protein to creatinine ratio ([5]; Day 80): 0.10
- urine protein to creatinine ratio ([5]; Day 84): 0.07

Substance: ISIS 416864: MOE gapmer, nucleobases 1275 to 1318 of SEQ ID NO: 1 (Table 8) (antisense GGCAGCGGACGGCATTGGTG; MOE gapmer, wing and gap sizes not given here)
- platelet aggregation (platelet aggregation; day 15 (with ADP)): 20 Ohms
- platelet aggregation (platelet aggregation; day 36 (with ADP)): 17.8 Ohms
- platelet aggregation (platelet aggregation; day 43 (with collagen)): 20 Ohms
- platelet aggregation (platelet aggregation; day 57 (with ADP)): 18 Ohms
- platelet aggregation (platelet aggregation; day 64 (with collagen)): 17 Ohms
- platelet aggregation (platelet aggregation; day 78 (with ADP)): 13 Ohms
- platelet aggregation (platelet aggregation; day 85 (with ADP)): 22 Ohms
- platelet aggregation (platelet aggregation; day 85 (with collagen)): 28 Ohms
- platelet aggregation (platelet aggregation; day −5 (with collagen)): 27 Ohms
- urine protein to creatinine ratio ([5]; Day 80): 0.36
- urine protein to creatinine ratio ([5]; Day 84): 0.34
